Results on 26 compounds are retold here after article PMC9855432, “Novel Set of Diarylmethanes to Target Colorectal Cancer: Synthesis, In Vitro and In Silico Studies” (Biomolecules, 2022).

One data set has as its system human CRC HCT116 cells. Briefly: MTT cell viability / IC50 on HCT116 cells. In kind it is cell-based. To be noted: for IC50: MTT assay, 1 to 50 µM, mean ± SEM of at least three experiments; for viability at 50 µM: HCT-116. The method, then:
(§1) Cells were grown in DMEM medium for HT-29 cells and RPMI 1640 medium for HCT116 cells, supplemented with 10% FBS, 1% L-glutamine and 100 U/mL penicillin and 100 μg/mL streptomycin. Cultures were maintained in a humidified atmosphere containing 5% CO2 at 37 °C. Stock solutions of each compound were used at 10^−2 M in DMSO and then diluted in culture medium to obtain the appropriate final concentrations. […] L929 cell line is a non-cancer cell line derived from L-strain (L cells) and has been grown in the Peptinov laboratory for years. L929 cells are murine adherent fibroblasts from subcutaneous connective tissue (areolar and adipose tissues). Cells were grown in DMEM medium supplemented with 10% FBS, 1% L-glutamine and 100 U/mL penicillin and 100 µg/mL streptomycin and maintained in a humidified incubator at 37 °C, 5% CO2. When confluence is at 80%, cells are trypsinyzed for 3 min and diluted in fresh medium. Each batch of cells is kept for 15 passages before being discarded and a new batch thawed.
(§2) All compounds were tested on the metabolic activity of the cells using the MTT colorimetric assay. Briefly, cells were seeded in 96-well microplates at 8 × 10^3 cells/well for human CRC HT-29 cells and 5 × 10^3 cells/well for human CRC HCT116 cells and grown for 24 h in appropriate culture medium prior to exposure or not to compounds (6–27) with concentration ranges from 1 to 50 µM. After 48 h of treatment, MTT (5 g/L in Phosphate-buffered saline (PBS)) was added and incubated for another 3 h. The MTT was then removed from the wells and 100 µL/well of DMSO were added to dissolve formazan. The optical density was detected with a microplate reader (Thermoscientific, Multiskan FC) at 550 nm and cell viability was expressed as a percentage of each treatment condition compared to control cells. IC50 values were calculated for all compounds from the dose–response curve.

A further data set concerns human CRC HT-29 cells. The experiment in a line: MTT cell viability / IC50 on HT-29 cells. The format is cell-based. As to conditions: for IC50: MTT assay, 1 to 50 µM, mean ± SEM of at least three experiments; for viability at 50 µM: HT-29. The method, then:
as §1, §2

Where [1] appears, read: Homo sapiens, 50 µM, 48 h, MTT screening.
[2] abbreviates: concentrations up to 50 µM, 48 h.

Turning to `COc1ccc(C(=Cc2ccc(O)cc2)c2ccccn2)cc1` [Compound 11b, 4-(2-(4-methoxyphenyl)-2-(pyridin-2-yl)vinyl)phenol], the IC50 is over 50 µM in the data set on human CRC HCT116 cells (Homo sapiens, HCT-116, 48 h) and over 50 µM with human CRC HT-29 cells (Homo sapiens, HT-29, 48 h).
Regarding `COc1ccc(C(=Cc2ccccc2)c2ccccn2)cc1` [Compound 6b, 2-(1-(4-méthoxyphenyl) -2-phenylvinyl) pyridine], the IC50 with human CRC HCT116 cells (48 h) and in the data set on human CRC HT-29 cells (48 h) was over 50 µM in each case.
For `COc1ccc(C(Oc2ccccc2)c2ccccn2)cc1` (stereo not shown) [Compound 17, 2-((4-methoxyphenyl)(phenoxy)methyl)pyridine], the IC50 is over 50 µM with human CRC HCT116 cells (Homo sapiens, HCT-116, 48 h) and over 50 µM in the data set with human CRC HT-29 cells (Homo sapiens, HT-29, 48 h).
Consider `COc1ccc(C(Oc2ccc(C)cc2)c2ccccn2)cc1` (stereo not shown) [Compound 18, 2-((4-methoxyphenyl)(p-tolyloxy)methyl)pyridine], for which the IC50 with human CRC HCT116 cells (Homo sapiens, HCT-116, 48 h) is over 50 µM; in the data set with human CRC HT-29 cells (Homo sapiens, HT-29, 48 h), over 50 µM.
As to `COc1ccc(C(=Cc2ccc(C(C)C)cc2)c2ccccn2)cc1` [Compound 9b, 2-(2-(4-isopropylphenyl)-1-(4-methoxyphenyl)vinyl)pyridine], the IC50 in the data set with human CRC HCT116 cells (Homo sapiens, HCT-116, 48 h) is over 50 µM; in the data set on human CRC HT-29 cells (Homo sapiens, HT-29, 48 h), 34.9 ± 0.78 µM. In the data set with human CRC HT-29 cells (setting [1]), this compound returned a viability at 50 µM of under 50%.
For the compound `COc1ccc(C(=Cc2ccc(C(C)C)cc2)c2ccccn2)cc1` [Compound 9a, 2-(2-(4-isopropylphenyl)-1-(4-methoxyphenyl)vinyl)pyridine], the IC50 in the data set on human CRC HCT116 cells (48 h) and in the data set with human CRC HT-29 cells (48 h) was over 50 µM in each case.
`COc1ccc(C(Oc2ccc(C(F)(F)F)cc2)c2ccccn2)cc1` (stereo not shown) [Compound 24, 2-((4-methoxyphenyl)(4-(trifluoromethyl)phenoxy)methyl)pyridine]: the IC50 in the data set on human CRC HCT116 cells (Homo sapiens, HCT-116, 48 h) is over 50 µM; in the data set with human CRC HT-29 cells (Homo sapiens, HT-29, 48 h) it was over 50 µM.
On to `COc1ccc(C(=Cc2ccc(Cl)cc2)c2ccccn2)cc1` [Compound 14b, 2-(2-(4-chlorophenyl)-1-(4-methoxyphenyl)vinyl)pyridine], for which the IC50 in the data set on human CRC HCT116 cells (48 h) and in the data set with human CRC HT-29 cells (48 h) was over 50 µM each time.
Turning to `COc1ccc(C(Oc2ccc(C(C)(C)C)cc2)c2ccccn2)cc1` (stereo not shown) [Compound 20, 2-((4-(tert-butyl)phenoxy)(4-methoxyphenyl)methyl)pyridine], the IC50 in the data set with human CRC HCT116 cells (Homo sapiens, HCT-116, 48 h) was over 50 µM; in the data set with human CRC HT-29 cells (Homo sapiens, HT-29, 48 h), over 50 µM.
In the case of `COc1ccc(C=C(c2ccc(OC)cc2)c2ccccn2)cc1` [Compound 8a, 2-(1,2-bis(4-methoxyphenyl)vinyl)pyridine], the IC50 with human CRC HCT116 cells (Homo sapiens, HCT-116, 48 h) is over 50 µM; in the data set with human CRC HT-29 cells (Homo sapiens, HT-29, 48 h), 43.5 ± 4.91 µM. Further, the viability at 50 µM with human CRC HT-29 cells (setting [1]) was under 50%.
`COc1ccc(OC(c2ccc(OC)cc2)c2ccccn2)cc1` (stereo not shown) [Compound 19, 2-((4-methoxyphenoxy)(4-methoxyphenyl)methyl)pyridine]: the IC50 is over 50 µM with human CRC HCT116 cells (Homo sapiens, HCT-116, 48 h) and over 50 µM in the data set with human CRC HT-29 cells (Homo sapiens, HT-29, 48 h).
In the case of `COc1ccc(C(=Cc2ccc(F)cc2)c2ccccn2)cc1` [Compound 15a, 2-(2-(4-fluorophenyl)-1-(4-methoxyphenyl)vinyl)pyridine], the IC50 in the data set on human CRC HCT116 cells (Homo sapiens, HCT-116, 48 h) was over 50 µM; in the data set on human CRC HT-29 cells (Homo sapiens, HT-29, 48 h), 43.43 ± 0.31 µM. This compound showed a viability at 50 µM with human CRC HT-29 cells (setting [1]) of under 50%.
In the case of `COc1ccc(C(Oc2ccc(F)cc2)c2ccccn2)cc1` (stereo not shown) [Compound 23, 2-((4-fluorophenoxy)(4-methoxyphenyl)methyl)pyridine], the IC50 with human CRC HCT116 cells (Homo sapiens, HCT-116, 48 h) was over 50 µM; in the data set with human CRC HT-29 cells (Homo sapiens, HT-29, 48 h) it was over 50 µM.
`COc1ccc(C(Oc2ccc([N+](=O)[O-])cc2)c2ccccn2)cc1` (stereo not shown) [Compound 25, 2-((4-methoxyphenyl)(4-nitrophenoxy)methyl)pyridine]: the IC50 with human CRC HCT116 cells (Homo sapiens, HCT-116, 48 h) is over 50 µM; in the data set with human CRC HT-29 cells (Homo sapiens, HT-29, 48 h) it was over 50 µM.
For the compound `COc1ccc(C(=Cc2ccc(C)cc2)c2ccccn2)cc1` [Compound 7a, 2-(1-(4-methoxyphenyl)-2-(p-tolyl)vinyl)pyridine], the IC50 in the data set on human CRC HCT116 cells (Homo sapiens, HCT-116, 48 h) is over 50 µM; with human CRC HT-29 cells (Homo sapiens, HT-29, 48 h), 35 ± 1.99 µM. This compound also displayed a viability at 50 µM with human CRC HT-29 cells (setting [1]) of under 50%.
Consider `COc1ccc(C(=Cc2ccc(Cl)cc2)c2ccccn2)cc1` [Compound 14a, 2-(2-(4-chlorophenyl)-1-(4-methoxyphenyl)vinyl)pyridine], for which the IC50 with human CRC HCT116 cells (Homo sapiens, HCT-116, 48 h) is 42.7 ± 2.24 µM; in the data set on human CRC HT-29 cells (Homo sapiens, HT-29, 48 h) it was under 30 µM; in the data set with human CRC HT-29 cells (48 h), 28.5 ± 1.82 µM. Moreover, the viability at 50 µM in the data set on human CRC HCT116 cells (setting [1]) and in the data set on human CRC HT-29 cells (setting [1]) was under 50% in each case.
As for `COc1ccc(C(=Cc2ccc(F)cc2)c2ccccn2)cc1` [Compound 15b, 2-(2-(4-fluorophenyl)-1-(4-methoxyphenyl)vinyl)pyridine], the IC50 in the data set on human CRC HCT116 cells (48 h) and in the data set on human CRC HT-29 cells (48 h) was over 50 µM throughout.
For `COc1ccc(C(Oc2ccc(C(C)=O)cc2)c2ccccn2)cc1` (stereo not shown) [Compound 27, 1-(4-((4-methoxyphenyl)(pyridin-2-yl)methoxy)phenyl)ethanone], the IC50 is over 50 µM with human CRC HCT116 cells (Homo sapiens, HCT-116, 48 h) and over 50 µM in the data set on human CRC HT-29 cells (Homo sapiens, HT-29, 48 h).
In the case of `COc1ccc(C(=Cc2ccc(Br)cc2)c2ccccn2)cc1` [Compound 13b, 2-(2-(4-bromophenyl)-1-(4-methoxyphenyl)vinyl)pyridine], the 50% inhibitory concentration (IC50) in the data set with human CRC HCT116 cells (Homo sapiens, HCT-116, 48 h) was under 35 µM; with human CRC HCT116 cells (48 h) it was 26.1 ± 2.08 µM; in the data set on human CRC HT-29 cells (48 h), over 50 µM. This compound displayed a viability at 50 µM in the data set on human CRC HCT116 cells (setting [1]) of under 50%.
In the case of `COc1ccc(C(Oc2ccc(N(C)C)cc2)c2ccccn2)cc1` (stereo not shown) [Compound 26, 4-((4-methoxyphenyl)(pyridin-2-yl)methoxy)-N,N-dimethylaniline], the IC50 in the data set with human CRC HCT116 cells (Homo sapiens, HCT-116, 48 h) is over 50 µM; with human CRC HT-29 cells (Homo sapiens, HT-29, 48 h), over 50 µM.
In the case of `COc1ccc(C(Oc2ccc(Br)cc2)c2ccccn2)cc1` (stereo not shown) [Compound 22, 2-((4-bromophenoxy)(4-methoxyphenyl)methyl)pyridine], the IC50 was 41.5 ± 1.48 µM in the data set on human CRC HCT116 cells (Homo sapiens, HCT-116, 48 h) and 37.9 ± 1.87 µM in the data set on human CRC HT-29 cells (Homo sapiens, HT-29, 48 h). The viability at 50 µM with human CRC HCT116 cells (setting [1]) and in the data set on human CRC HT-29 cells (setting [1]) was under 50% each time. Besides, the “antiproliferative activity HCT116 (in words)” value with human CRC HCT116 cells (setting [2]) is on record as “potential antiproliferative activity”. For the same compound, the “antiproliferative activity HT-29 (in words)” value with human CRC HT-29 cells (setting [2]) is “potential antiproliferative activity”.
Turning to `COc1ccc(C(=Cc2ccc(C)cc2)c2ccccn2)cc1` [Compound 7b, 2-(1-(4-methoxyphenyl)-2-(p-tolyl)vinyl)pyridine], the half-maximal inhibitory concentration (IC50) with human CRC HCT116 cells (48 h) was over 50 µM; in the data set with human CRC HT-29 cells (48 h), 36.2 ± 4.56 µM. Also, in the data set on human CRC HT-29 cells (50 µM, 48 h, MTT screening), the “Cell viability (%) HT-29” value was under 50%.
Turning to `COc1ccc(C(=Cc2ccccc2)c2ccccn2)cc1` [Compound 6a, 2-(1-(4-méthoxyphenyl) -2-phenylvinyl) pyridine], the IC50 in the data set on human CRC HCT116 cells (Homo sapiens, HCT-116, 48 h) turned out to be 35.6 ± 2.08 µM; in the data set with human CRC HT-29 cells (Homo sapiens, HT-29, 48 h), 30.3 ± 1.78 µM. Also, the viability at 50 µM with human CRC HCT116 cells (setting [1]) and in the data set on human CRC HT-29 cells (setting [1]) was under 50% throughout.
On to `COc1ccc(C(=Cc2ccc(Br)cc2)c2ccccn2)cc1` [Compound 13a, 2-(2-(4-bromophenyl)-1-(4-methoxyphenyl)vinyl)pyridine], for which the “Cell viability (%) HCT116” value in the data set on human CRC HCT116 cells (50 µM, 48 h, MTT screening) is under 50%. Besides, the half-maximal inhibitory concentration (IC50) with human CRC HCT116 cells (48 h) was found to be 36.6 ± 2.94 µM; with human CRC HT-29 cells (48 h), 24 ± 2.65 µM. The compound further returned a viability at 50 µM in the data set on human CRC HT-29 cells (setting [1]) of under 50%.
As to `COc1ccc(C(Oc2ccc(Cl)cc2)c2ccccn2)cc1` (stereo not shown) [Compound 21, 2-((4-chlorophenoxy)(4-methoxyphenyl)methyl)pyridine], the IC50 with human CRC HCT116 cells (Homo sapiens, HCT-116, 48 h) is over 50 µM; in the data set with human CRC HT-29 cells (Homo sapiens, HT-29, 48 h), over 50 µM.
In the case of `COc1ccc(C(=Cc2ccc(C(F)(F)F)cc2)c2ccccn2)cc1` [Compound 12b, 2-(1-(4-methoxyphenyl)-2-(4-(trifluoromethyl)phenyl)vinyl)pyridine], the IC50 in the data set with human CRC HCT116 cells (48 h) and in the data set on human CRC HT-29 cells (48 h) was over 50 µM throughout.
